Reference: patent publication US8841456B2, “1,5-naphthyridine derivative or salt thereof” (FUJIFILM Corporation, priority 2011, dated 2014)
Read-outs that look alike come from different tables or passages of the source.

Columns and labels:
[1] = molecular target: T1, glutathione S-transferase (GST)-fusion human ERK2 protein (Homo sapiens, UniProt P28482); assay: ERK2 enzyme assay (LabChip mobility shift); assay type: biochemical; conditions: 2 nM ERK2, 4.25 μM FL-Peptide 8, 43 μM ATP
T1 construct: purchased Carna Biosciences, Inc; host or cells: E. coli expression system
Experimental: Evaluation of the ERK2 inhibitory activity of the compound of the present invention was carried out according to the method as described below.
For the ERK2 enzyme assay, a glutathione S-transferase (GST)-fusion human ERK2 protein (Carna Biosciences, Inc.) produced using an E. coli expression system was used.
12 μL of the reaction solution (2 nM ERK2, 100 mM Hepes, 10 mM MgCl2, 1.5 mM DTT, 0.003% Brij35, pH 7.5) including the ERK2 protein and a test compound at a predetermined concentration was incubatedat room temperature for 15 minutes. Thereafter, 3 μL of a mixed solution of FL-Peptide 8 (5-FAM-IPTSPITTTYFFFKKK-COOH) (Caliper Lifescience) which was a substrate and ATP(SIGMA-ALDLICH) were added thereto to a final concentration of 4.25 μM and 43 μM, respectively. The reaction solution was further incubated at 25° C. for 120 minutes to carry out an enzyme reaction.
The enzyme reaction was stopped by adding 27 μL of a reaction-stopping solution (100 mM HEPES, 11.2 mM EDTA, 5.6% Brij35, pH 7.5) including a 0.5% Coating reagent 8 (PerkinElmer, Inc.) after the reaction. Thereafter, non-phosphorylated peptides and phosphorylated peptides were separated using LabChip Ez Reader (Caliper LifeScience, Inc.) to quantify the proportion of phosphorylated peptides.
(§1) The inhibitory activity of the compounds was evaluated using an IC50 (50% inhibitory concentration). The IC50 was calculated using XLfit (IDBS).

human PI3Kα protein = molecular target: T2, human PI3Kα protein (Homo sapiens, UniProt P42336); assay: PI3Kα enzyme assay (ADP-Glo kinase assay); assay type: biochemical; conditions: 3 nM PI3Kα, 50 μM PIP2, 100 μM ATP
T2 construct: purchased Carna Biosciences, Inc; host or cells: Baculovirus expression system
Experimental: Evaluation of the PI3Kα inhibitory activity of the compound of the present invention was carried out according to the method as described below.
For the PI3Kα enzyme assay, biotinylated product of a human PI3Kα protein produced using a Baculovirus expression system (Carna Biosciences, Inc.) was used. Further, for the detection of the enzyme activity, an ADP-Glo kinase assay (PROMEGA Corporation) was used.
10 μL of a reaction solution (3 nM PI3Kα, 40 mM Tris-HCl, 20 mM MgCl2, 0.1% BSA, pH 7.5) including the human PI3Kα protein and a test compound at a predetermined concentration was incubated at room temperature for 15 minutes. Thereafter, 5 μL of a mixed solution of L-α-Phosphatidylinositol 4,5-diphosphate (PIP2) (SIGMA-ALDLICH) which was a substrate and ATP(SIGMA-ALDLICH) was added thereto to a final concentration of 50 μM and 100 μM, respectively, and the reaction solution was further incubated at 25° C. for 60 minutes to carry out an enzyme reaction.
After the reaction, 15 μL of an ADP-Glo reagent (PROMEGA Corporation) was added and the resulting liquid was incubated at room temperature for 60 minutes, whereby the enzyme reaction was stopped. Thereafter, after further adding 30 μL of a Kinase Detection Reagent (PROMEGA Corporation) and standing the resulting solution at room temperature for 40 minutes, ADP produced by the enzyme reaction was quantified by luminescence intensity.
For the measurement of luminescence intensity, EnVision (PerkinElmer, Inc.) was used.
as §1

[2] = IC50 class, read-out: ERK2 Inhibitory Activity
[3] = IC50 class, read-out: PI3Kα Inhibitory Activity

T1 sequence (P28482 whole entry, the tested form may be a part): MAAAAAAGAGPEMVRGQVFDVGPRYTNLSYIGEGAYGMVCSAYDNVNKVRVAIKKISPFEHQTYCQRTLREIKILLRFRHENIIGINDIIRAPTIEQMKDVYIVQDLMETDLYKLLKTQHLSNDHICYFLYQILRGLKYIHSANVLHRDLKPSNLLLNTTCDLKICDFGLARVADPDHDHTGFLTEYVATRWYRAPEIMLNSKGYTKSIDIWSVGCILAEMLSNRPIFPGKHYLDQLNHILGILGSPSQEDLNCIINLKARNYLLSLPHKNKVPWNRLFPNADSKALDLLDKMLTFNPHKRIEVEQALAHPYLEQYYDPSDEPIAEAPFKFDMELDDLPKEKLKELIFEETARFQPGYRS
T2 sequence (P42336 whole entry): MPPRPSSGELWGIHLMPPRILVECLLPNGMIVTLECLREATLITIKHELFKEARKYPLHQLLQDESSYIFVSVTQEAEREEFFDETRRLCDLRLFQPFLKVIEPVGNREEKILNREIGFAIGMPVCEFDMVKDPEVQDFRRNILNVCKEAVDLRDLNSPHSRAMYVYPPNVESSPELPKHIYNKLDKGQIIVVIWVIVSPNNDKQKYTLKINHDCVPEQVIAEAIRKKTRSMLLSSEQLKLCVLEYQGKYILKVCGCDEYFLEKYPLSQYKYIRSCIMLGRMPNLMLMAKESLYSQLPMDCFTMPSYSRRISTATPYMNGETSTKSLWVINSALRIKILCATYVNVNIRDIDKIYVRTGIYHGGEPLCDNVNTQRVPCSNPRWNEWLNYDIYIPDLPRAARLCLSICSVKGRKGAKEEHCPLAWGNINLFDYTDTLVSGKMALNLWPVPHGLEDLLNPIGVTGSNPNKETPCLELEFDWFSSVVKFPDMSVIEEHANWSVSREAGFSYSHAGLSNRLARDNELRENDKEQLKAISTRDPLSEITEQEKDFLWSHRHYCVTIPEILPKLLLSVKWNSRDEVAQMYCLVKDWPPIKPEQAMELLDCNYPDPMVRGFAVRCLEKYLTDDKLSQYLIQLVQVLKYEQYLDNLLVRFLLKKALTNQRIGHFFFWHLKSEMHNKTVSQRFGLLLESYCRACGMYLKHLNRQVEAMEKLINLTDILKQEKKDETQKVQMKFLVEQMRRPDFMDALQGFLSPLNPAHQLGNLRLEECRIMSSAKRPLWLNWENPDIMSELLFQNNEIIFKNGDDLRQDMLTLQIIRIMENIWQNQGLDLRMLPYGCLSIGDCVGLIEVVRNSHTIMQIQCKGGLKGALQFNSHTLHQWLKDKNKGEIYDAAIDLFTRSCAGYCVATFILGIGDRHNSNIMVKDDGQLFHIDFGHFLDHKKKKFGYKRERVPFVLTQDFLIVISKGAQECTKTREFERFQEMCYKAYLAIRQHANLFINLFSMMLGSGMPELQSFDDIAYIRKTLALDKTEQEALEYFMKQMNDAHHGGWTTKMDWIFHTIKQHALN
T2 sequence (P27986 whole entry partner): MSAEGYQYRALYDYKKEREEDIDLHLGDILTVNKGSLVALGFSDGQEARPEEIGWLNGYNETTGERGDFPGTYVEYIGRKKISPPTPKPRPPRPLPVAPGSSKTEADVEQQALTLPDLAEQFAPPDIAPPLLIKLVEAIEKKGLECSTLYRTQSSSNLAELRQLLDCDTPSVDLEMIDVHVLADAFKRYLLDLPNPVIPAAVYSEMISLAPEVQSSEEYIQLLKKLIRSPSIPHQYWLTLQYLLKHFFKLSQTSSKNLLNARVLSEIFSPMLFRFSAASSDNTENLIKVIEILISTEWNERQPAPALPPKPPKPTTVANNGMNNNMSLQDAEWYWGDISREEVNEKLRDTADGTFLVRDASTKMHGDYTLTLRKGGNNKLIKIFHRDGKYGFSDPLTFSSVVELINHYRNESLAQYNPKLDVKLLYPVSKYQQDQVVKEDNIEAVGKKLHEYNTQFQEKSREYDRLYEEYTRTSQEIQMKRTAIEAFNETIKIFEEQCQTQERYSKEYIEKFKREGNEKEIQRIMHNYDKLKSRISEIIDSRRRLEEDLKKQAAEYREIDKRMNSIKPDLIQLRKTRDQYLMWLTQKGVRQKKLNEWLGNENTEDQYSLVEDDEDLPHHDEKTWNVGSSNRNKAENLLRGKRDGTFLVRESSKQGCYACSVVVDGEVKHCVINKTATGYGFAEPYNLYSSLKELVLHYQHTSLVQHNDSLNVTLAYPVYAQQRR

Row | SMILES | IC50 [1, 2] [nM] | IC50 (human PI3Kα protein; [3]) [nM] | IC50 ([1]; read-out: ERK2, IC50) [nM] | IC50 (human PI3Kα protein; read-out: PI3Kα, IC50) [nM]
1 | O=C(Nc1ccc2ncc(-c3cnn(CC4CNC4)c3)cc2n1)NC1CCCC1 [Compound 0146] | < 100 | < 100 | – | –
2 | Cn1cc(-c2cnc3ccc(NC(=O)NC4CCCC4)nc3c2)cn1 [Compound 0003] | < 100 | < 100 | – | –
3 | O=C(Nc1ccc2ncc(C3=CCOCC3)cc2n1)NC1CCCC1 [Compound 0205] | < 100 | < 100 | – | –
4 | COc1ccc(-c2cnc3ccc(NC(=O)NC4CCCC4)nc3c2)cc1OC [Compound 0002] | < 100 | < 100 | 42 | 84
5 | O=C(Nc1ccc2ncc(-c3cc(O)no3)cc2n1)NC1CCCC1 [Compound 0128] | 1000 to 10000 | 100 to 1000 | – | –
6 | O=C(Nc1ccc2ncc(-c3ccncc3)cc2n1)NC1CCCC1 [Compound 0007] | < 100 | < 100 | – | –
7 | CN1CCN(CCCn2cc(-c3cnc4ccc(NC(=O)NC5(C)CCCC5)nc4c3)cn2)CC1 [Compound 0257] | 100 to 1000 | < 100 | – | –
8 | COc1cc(-c2cnc3ccc(NC(=O)NC4CCCC4)nc3c2)cnc1O [Compound 0015] | < 100 | < 100 | – | –
9 | C#Cc1cnc2ccc(NC(=O)NC3CCCC3)nc2c1 [Compound 0017] | 1000 to 10000 | 100 to 1000 | – | –
10 | O=C(NCCCOc1ccccc1)Nc1ccc2ncc(-c3cn[nH]c3)cc2n1 [Compound 0104] | < 100 | 100 to 1000 | – | –
11 | O=C(Nc1ccc2ncc(N3CCS(=O)(=O)CC3)cc2n1)NC1CCCC1 [Compound 0133] | < 100 | < 100 | – | –
12 | O=C(Nc1ccc2ncc(-c3cn[nH]c3)cc2n1)N[C@H]1CCC[C@@H]1OCc1ccccc1 [Compound 0159] | 100 to 1000 | < 100 | – | –
13 | O=C(Nc1ccc2ncc(N3CC(OCCN4CCOCC4)C3)cc2n1)NC1CCCC1 [Compound 0241] | 100 to 1000 | < 100 | – | –
14 | COc1cccc(Nc2cnc3ccc(NC(=O)NC4CCCC4)nc3c2)c1 [Compound 0029] | > 10000 | < 100 | – | –
15 | N#Cc1cnc2ccc(NC(=O)NC3CCCC3)nc2c1 [Compound 0129] | 1000 to 10000 | 1000 to 10000 | – | –
16 | O=C(Nc1ccc2ncc(N3CCN(c4ccccc4)CC3)cc2n1)NC1CCCC1 [Compound 0153] | > 10000 | 100 to 1000 | – | –
17 | O=C(Nc1ccc2ncc(-c3cn[nH]c3)cc2n1)N[C@@H]1CCNC1 [Compound 0073] | < 100 | 1000 to 10000 | – | –
18 | CCNC(=O)Nc1ccc2ncc(-c3cn[nH]c3)cc2n1 [Compound 0054] | < 100 | 100 to 1000 | – | –
19 | CCCNC(=O)Nc1ccc2ncc(-c3cn[nH]c3)cc2n1 [Compound 0055] | < 100 | 100 to 1000 | – | –
20 | COCCCNC(=O)Nc1ccc2ncc(-c3cn[nH]c3)cc2n1 [Compound 0100] | < 100 | 100 to 1000 | – | –
21 | CN(C)CCCn1cc(-c2cnc3ccc(NC(=S)NC4CCCC4)nc3c2)cn1 [Compound 0221] | < 100 | < 100 | – | –
22 | CCOC(=O)c1nn(C)cc1-c1cnc2ccc(NC(=O)NC3CCCC3)nc2c1 [Compound 0215] | 100 to 1000 | < 100 | – | –
23 | Cn1cc(-c2cnc3ccc(NC(=O)NC4CCCC4)nc3c2)c(CO)n1 [Compound 0216] | < 100 | < 100 | – | –

Row | SMILES | IC50 [1, 2] [nM] | IC50 (human PI3Kα protein; [3]) [nM] | IC50 ([1]; read-out: ERK2, IC50) [nM] | IC50 (human PI3Kα protein; read-out: PI3Kα, IC50) [nM]
24 | O=C(NCCO)Nc1ccc2ncc(-c3cn[nH]c3)cc2n1 [Compound 0097] | 100 to 1000 | 1000 to 10000 | – | –
25 | CN(C)CCCNC(=O)Nc1ccc2ncc(-c3cn[nH]c3)cc2n1 [Compound 0106] | 100 to 1000 | 1000 to 10000 | – | –
26 | O=C(Nc1ccc2ncc(-c3cn[nH]c3)cc2n1)NC1CC[C@H](O)C1 (some centres unmarked) [Compound 0091] | < 100 | < 100 | – | –
27 | O=C(Nc1ccc2ncc(-c3cccnc3)cc2n1)NC1CCCC1 [Compound 0005] | 100 to 1000 | 100 to 1000 | – | –
28 | C[C@@H]1CN(c2cnc3ccc(NC(=O)NC4CCCC4)nc3c2)C[C@H](C)O1 [Compound 0085] | 100 to 1000 | < 100 | – | –
29 | O=C(Nc1ccc2ncc(-c3cn[nH]c3)cc2n1)NC1CCOCC1 [Compound 0076] | < 100 | 100 to 1000 | – | –
30 | COc1ccc(Nc2cnc3ccc(NC(=O)NC4CCCC4)nc3c2)cc1OC [Compound 0030] | > 10000 | < 100 | – | –
31 | O=C(NCCCCc1ccccc1)Nc1ccc2ncc(-c3cnn(CCCN4CCOCC4)c3)cc2n1 [Compound 0203] | < 100 | < 100 | – | –
32 | O=C(Nc1ccc2ncc(N3CC(O)C3)cc2n1)NC1CCCC1 [Compound 0038] | < 100 | < 100 | – | –
33 | O=C(NCCCCc1ccccc1F)Nc1ccc2ncc(-c3cnn(CCCN4CCOCC4)c3)cc2n1 [Compound 0183] | < 100 | < 100 | – | –
34 | O=C(NCCCCc1ccccc1Cl)Nc1ccc2ncc(-c3cn[nH]c3)cc2n1 [Compound 0165] | < 100 | 100 to 1000 | – | –
35 | O=C(NCCc1c[nH]c2ccccc12)Nc1ccc2ncc(-c3cn[nH]c3)cc2n1 [Compound 0112] | < 100 | 100 to 1000 | – | –
36 | C[C@H](NC(=O)Nc1ccc2ncc(-c3cn[nH]c3)cc2n1)C1CCCCC1 [Compound 0079] | < 100 | < 100 | – | –
37 | O=C(Nc1ccc2ncc(-c3nn[nH]n3)cc2n1)NC1CCCC1 [Compound 0131] | 100 to 1000 | < 100 | – | –
38 | C[C@@H](NC(=O)Nc1ccc2ncc(-c3cnn(CCCN4CCOCC4)c3)cc2n1)C1CCCCC1 [Compound 0181] | < 100 | < 100 | – | –
39 | COCCN(C)c1cnc2ccc(NC(=O)NC3CCCC3)nc2c1 [Compound 0026] | 100 to 1000 | < 100 | – | –
40 | O=C1CN(c2cnc3ccc(NC(=O)NC4CCCC4)nc3c2)CCN1 [Compound 0142] | 100 to 1000 | < 100 | – | –
41 | CCCN1CCC(n2cc(-c3cnc4ccc(NC(=O)NC5CCCC5)nc4c3)cn2)CC1 [Compound 0229] | 100 to 1000 | < 100 | – | –
42 | CCCCNC(=O)Nc1ccc2ncc(-c3cn[nH]c3)cc2n1 [Compound 0093] | < 100 | < 100 | – | –
43 | CC(C)(C)OC(=O)C1CCN(c2cnc3ccc(NC(=O)NC4CCCC4)nc3c2)CC1 [Compound 0149] | 1000 to 10000 | 100 to 1000 | – | –
44 | O=C(NCc1ccccn1)Nc1ccc2ncc(-c3cn[nH]c3)cc2n1 [Compound 0101] | < 100 | 1000 to 10000 | – | –
45 | O=C(Nc1ccc2ncc(-c3cnco3)cc2n1)NC1CCCC1 [Compound 0239] | < 100 | < 100 | – | –
